# Experimental data from US12110283B2, “Carbonic anhydrase targeting agents and methods of using same” (VisEn Medical, Inc., priority 2011, dated 2024).
# Key:
# CA IX [1] = target: T1, CA IX (Homo sapiens, UniProt Q16790); assay: Ki by stopped flow CO2 hydration assay, CA IX; assay type: biochemical; conditions: for Ki: rate of CO2 hydration, stopped flow method
# T1 construct: confirming upregulation and expression of CA IX in these cells; endogenous in cells; host or cells: HeLa cells, hypoxic (1% O2) or normoxic
# Protocol: (§1) In this experiment, Ki values were determined by measuring the rate of CO2 hydration of the CA spectrophotometrically by a stopped flow method in the presence of varying concentrations of the CA agents.
# CA XIV = CA XIV (Homo sapiens, UniProt Q9ULX7); assay: Ki by stopped flow CO2 hydration assay, CA XIV; assay type: biochemical; conditions: rate of CO2 hydration, stopped flow method
# Protocol: as §1
# CA XII = CA XII (Homo sapiens, UniProt O43570); assay: Ki by stopped flow CO2 hydration assay, CA XII; assay type: biochemical; conditions: rate of CO2 hydration, stopped flow method
# Protocol: as §1
# CA II = CA II (Homo sapiens, UniProt P00918); assay: Ki by stopped flow CO2 hydration assay, CA II; assay type: biochemical; conditions: rate of CO2 hydration, stopped flow method
# Protocol: as §1
# HeLa tumors = assay: Imaging of tumors in vivo using CA agents (planar reflectance and FMT); conditions: NU/NU mice, bilateral HeLa tumors, 2 nmoles i.v., 24 hrs post-injection
# Protocol: In this experiment, NU/NU mice 6-8 weeks old (Charles River Laboratory, Wilmington, MA) were injected subcutaneously (s.c.) with about 2×10^6 HeLa cells bilaterally in each mammary fat pad. When tumors reached an approximate size of 3×3 mm, mice were injected intravenously (i.v.) with 2 nmoles of carbonic anhydrase agent C5 or nonbinding control agent D3 (5 mice/probe+2 mice/no probe as control) in 100 μL volume via tail vein. Imaging was conducted at 24 hrs post-injection using a Fluorescence Molecular Tomography system (VisEn Medical, Bedford, MA) that is commercially available.
# [2] = Biodistribution of i.v. administered compound in HeLa tumor bearing mice; assay type: in vivo; conditions: 2 nmoles i.v., 24 hr, excised tissues, reflectance mode
# Protocol: Female NU/NU mice 6-8 weeks old (Charles River Laboratory, Wilmington, MA) were injected subcutaneously (s.c.) with HeLa cells (5×10^6) in the first mammary fat pads. Once tumors reached the desired volume (measured with calipers using the formula volume mm^3=(length×width^2)/2), mice were injected i.v. with compound C5 (2 nmoles) or nonbinding control D3. Mice were sacrificed by carbon dioxide asphyxiation 24 hr later and certain tissues removed, rinsed with saline, blotted dry, and the imaged on a VisEn FMT 2500 using the reflectance mode. Regions of interest (ROIs) were drawn around each organ using the FMT Software and the mean fluorescence (reported as counts/energy) determined for each organ and normalized to the mean fluorescence in tumors taken to be 100%.
# CA IX [3] = target: T1, CA IX; assay: Carbonic anhydrase dependent binding of CA agents to HeLa cells (fluorescence microscopy, flow cytometry); assay type: cell-based; conditions: for binding to hypoxic HeLa cells, flow cytometry (FIG. 3) / binding to hypoxic and normoxic HeLa cells, fluorescence microscopy (FIG. 2): HeLa cells 24 h in air or 1% O2, agents 1 μM, 30 min; for binding to hypoxic HeLa cells after excess acetazolamide, fluorescence microscopy (FIG. 2) / signal on hypoxic HeLa cells with acetazolamide, flow cytometry (FIG. 3): acetazolamide 100 μM for 2 hour before the agent
# Protocol: Cell binding assays using HeLa cells cultured under […] were performed. Hela cells (28,000 cells/cm^2) were cultured in 6 well culture plates for 24 h under normoxic (air) or hypoxic (1% O2) conditions. Incubation with a fluorescent anti CA IX Ab (R&D systems) was performed in one well as a positive control followed by incubation for 1 h at 37° C. Carbonic anhydrase agents A5 and A3 (1 μM) or nonbinding control agent D3 were added to individual wells followed by incubation for 30 min. Cells were rinsed three times with PBS then scraped with 2 mL, transferred to 5 mL tubes and then spun for 10 min at 1000 rpm to discard the PBS. The cells were then re-suspend the cells in 400 μL PBS and analyzed by fluorescence microscopy and flow cytometry. For fluorescence microscopy, nuclei were co-stained with DAPI. For the competition study, cells were incubated with acetazolamide (Az) (100 μM) for 2 hour before incubation with agents.
# Chain of CA XIV (Q9ULX7 16-337, species assumed): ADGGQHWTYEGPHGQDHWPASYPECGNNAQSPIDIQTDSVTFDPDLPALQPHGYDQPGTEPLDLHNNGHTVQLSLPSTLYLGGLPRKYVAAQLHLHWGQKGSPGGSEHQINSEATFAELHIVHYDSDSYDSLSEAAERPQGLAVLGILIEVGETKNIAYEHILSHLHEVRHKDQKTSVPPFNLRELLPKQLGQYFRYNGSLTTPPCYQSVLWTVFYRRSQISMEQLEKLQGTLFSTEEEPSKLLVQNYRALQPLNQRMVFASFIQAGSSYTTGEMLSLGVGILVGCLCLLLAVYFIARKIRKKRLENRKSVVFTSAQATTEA
# Chain of CA XII (O43570 25-354, species assumed): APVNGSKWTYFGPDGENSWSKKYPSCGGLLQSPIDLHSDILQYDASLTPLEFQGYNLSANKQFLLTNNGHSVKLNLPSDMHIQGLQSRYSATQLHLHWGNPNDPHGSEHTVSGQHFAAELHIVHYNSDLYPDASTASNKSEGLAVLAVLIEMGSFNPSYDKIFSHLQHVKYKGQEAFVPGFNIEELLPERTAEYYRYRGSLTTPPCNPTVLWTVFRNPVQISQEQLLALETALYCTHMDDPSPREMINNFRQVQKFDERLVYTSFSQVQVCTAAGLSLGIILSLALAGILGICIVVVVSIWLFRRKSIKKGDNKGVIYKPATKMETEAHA
Ki (CA IX [1]) [nM],Ki (CA XIV) [nM],Ki (CA XII) [nM],Ki (CA II) [nM],"specific binding to carbonic anhydrases (CA IX [1]; summary in words of Table 5: CA II, CA IX, CA XII, CA XIV)","binding to hypoxic HeLa cells, flow cytometry (FIG. 3) (CA IX [3])","binding to hypoxic HeLa cells after excess acetazolamide, fluorescence microscopy (FIG. 2) (CA IX [3])","signal on hypoxic HeLa cells with acetazolamide, flow cytometry (FIG. 3) (CA IX [3])",SMILES,tumor signal by planar reflectance and tomographic imaging (HeLa tumors),"tissue fluorescence (biodistribution), normalized to tumors (FIG. 4) [2]","binding to hypoxic and normoxic HeLa cells, fluorescence microscopy (FIG. 2) (CA IX [3])"
7.7,84,40,27.1,,,,,"CCN1/C(=C/C=C(/C=C/C2=[N+](CC)c3ccc4c(S(=O)(=O)[O-])cc(S(=O)(=O)O)cc4c3C2(C)C)c2ccc(C(=O)NCc3ccc(C(=O)Nc4nnc(S(N)(=O)=O)s4)cc3)cn2)C(C)(C)c2c1ccc1c(S(=O)(=O)O)cc(S(=O)(=O)O)cc21 [Compound A6, 3-ethyl-2-((1E,3Z,5E)-5-(3-ethyl-1,1-dimethyl-6,8-disulfo-1H-benzo[e]indol-2(3H)-ylidene)-3-(5-((4-((5-sulfamoyl-1,3,4-thiadiazol-2-yl)carbamoyl)benzyl)carbamoyl)pyridin-2-yl)penta-1,3-dien-1-yl)-1,1-dimethyl-8-sulfo-1H-benzo[e]indol-3-ium-6-sulfonate]",,,
> 100000,> 100000,> 100000,> 100000,no specific binding is detected,not,,,"CC1(C)C(/C=C/C(=C/C=C2/N(CCCS(=O)(=O)O)c3ccc4c(S(=O)(=O)O)cc(S(=O)(=O)O)cc4c3C2(C)C)c2ccc(C(=O)NCCCCCC(=O)NCc3ccccc3)cn2)=[N+](CCCS(=O)(=O)[O-])c2ccc3c(S(=O)(=O)O)cc(S(=O)(=O)O)cc3c21 [Compound D3, 3-(2-((1E,3Z,5E)-3-(5-((6-(benzylamino)-6-oxohexyl)carbamoyl)pyridin-2-yl)-5-(1,1-dimethyl-6,8-disulfo-3-(3-sulfopropyl)-1H-benzo[e]indol-2(3H)-ylidene)penta-1,3-dien-1-yl)-1,1-dimethyl-6,8-disulfo-1H-benzo[e]indol-3-ium-3-yl)propane-1-sulfonate]",little or no tumor signal,fluorescence accumulation only in the kidneys,doesn't bind to either normoxic or hypoxic cells
7.9,45,43,271,,increased binding,binding can be blocked,blocking of the signal,"CC1(C)C(/C=C/C(=C/C=C2/N(CCCS(=O)(=O)O)c3ccc4c(S(=O)(=O)O)cc(S(=O)(=O)O)cc4c3C2(C)C)c2ccc(C(=O)NCc3ccc(C(=O)Nc4nnc(S(N)(=O)=O)s4)cc3)cn2)=[N+](CCCS(=O)(=O)[O-])c2ccc3c(S(=O)(=O)O)cc(S(=O)(=O)O)cc3c21 [Compound A5, 3-(2-((1E,3Z,5E)-5-(1,1-dimethyl-6,8-disulfo-3-(3-sulfopropyl)-1H-benzo[e]indol-2(3H)-ylidene)-3-(5-((4-((5-sulfamoyl-1,3,4-thiadiazol-2-yl)carbamoyl)benzyl)carbamoyl)pyridin-2-yl)penta-1,3-dien-1-yl)-1,1-dimethyl-6,8-disulfo-1H-benzo[e]indol-3-ium-3-yl)propane-1-sulfonate]",,,bound to CA IX receptors on the surface of the hypoxic cells but not normoxic cells
8.4,77,57,288,,,,,"CN(CCCC(=O)NCc1ccc(C(=O)Nc2nnc(S(N)(=O)=O)s2)cc1)S(=O)(=O)c1cccc2c3c(ccc12)[N+](CCCS(=O)(=O)[O-])=C(/C=C/C=C/C=C1/N(CCCS(=O)(=O)O)c2ccc4c(S(=O)(=O)O)cc(S(=O)(=O)O)cc4c2C1(C)C)C3(C)C [Compound A1, 3-(2-((1E,3E,5E)-5-(1,1-dimethyl-6,8-disulfo-3-(3-sulfopropyl)-1H-benzo[e]indol-2(3H)-ylidene)penta-1,3-dien-1-yl)-1,1-dimethyl-6-(N-methyl-N-(4-oxo-4-((4-((5-sulfamoyl-1,3,4-thiadiazol-2-yl)carbamoyl)benzyl)amino)butyl)sulfamoyl)-1H-benzo[e]indol-3-ium-3-yl)propane-1-sulfonate]",,,
7.6,57,36,9.8,,increased binding,binding can be blocked,blocking of the signal,"CC1(C)C(/C=C/C(=C/C=C2/N(CCCS(=O)(=O)O)c3ccc4c(S(=O)(=O)O)cc(S(=O)(=O)O)cc4c3C2(C)C)c2ccc(C(=O)NCCCCCC(=O)NCc3ccc(C(=O)Nc4nnc(S(N)(=O)=O)s4)cc3)cn2)=[N+](CCCS(=O)(=O)[O-])c2ccc3c(S(=O)(=O)O)cc(S(=O)(=O)O)cc3c21 [Compound A3, 3-(2-((1E,3Z,5E)-5-(1,1-dimethyl-6,8-disulfo-3-(3-sulfopropyl)-1H-benzo[e]indol-2(3H)-ylidene)-3-(5-((6-oxo-6-((4-((5-sulfamoyl-1,3,4-thiadiazol-2-yl)carbamoyl)benzyl)amino)hexyl)carbamoyl)pyridin-2-yl)penta-1,3-dien-1-yl)-1,1-dimethyl-6,8-disulfo-1H-benzo[e]indol-3-ium-3-yl)propane-1-sulfonate]",,,bound to CA IX receptors on the surface of the hypoxic cells but not normoxic cells
9.9,69,40,502,,,,,"CCN1/C(=C/C=C(/C=C/C2=[N+](CC)c3ccc4c(S(=O)(=O)[O-])cc(S(=O)(=O)O)cc4c3C2(C)C)c2ccc(C(=O)NCc3ccc(S(N)(=O)=O)cc3)cn2)C(C)(C)c2c1ccc1c(S(=O)(=O)O)cc(S(=O)(=O)O)cc21 [Compound B6, 3-ethyl-2-((1E,3Z,5E)-5-(3-ethyl-1,1-dimethyl-6,8-disulfo-1H-benzo[e]indol-2(3H)-ylidene)-3-(5-((4-sulfamoylbenzyl)carbamoyl)pyridin-2-yl)penta-1,3-dien-1-yl)-1,1-dimethyl-8-sulfo-1H-benzo[e]indol-3-ium-6-sulfonate]",,,
